Laboratory results: ChEMBL document CHEMBL4828765, “Design and Development of a Chemical Probe for Pseudokinase Ca2+/calmodulin-Dependent Ser/Thr Kinase” (J Med Chem, 2021)
The source made the active and inactive calls. No cut-off for these calls is given here.

How the values were obtained:
[1] = target: T1, Tyrosine-protein kinase ABL1 (Homo sapiens, UniProt P00519); assay: Inhibition of tracer K5 binding to NanoLuc-fused ABL1 (unknown origin) expressed in HEK293T cells measured after 2 hrs by NanoBRET assay; assay type: cell-based
[2] = species on record: Homo sapiens; assay: Binding affinity to MERTK-AXL mutant (unknown origin) expressed in Escherichia coli Rosetta cells assessed as change in melting temperature by SYPRO orange dye based DSF assay
[3] = target: T2, Tyrosine-protein kinase receptor TYRO3 (Homo sapiens, UniProt Q06418); assay: Inhibition of tracer K5 binding to NanoLuc-fused TYRO3 (unknown origin) expressed in HEK293T cells measured after 2 hrs by NanoBRET assay; assay type: cell-based
T2 sequence (Q06418 whole entry): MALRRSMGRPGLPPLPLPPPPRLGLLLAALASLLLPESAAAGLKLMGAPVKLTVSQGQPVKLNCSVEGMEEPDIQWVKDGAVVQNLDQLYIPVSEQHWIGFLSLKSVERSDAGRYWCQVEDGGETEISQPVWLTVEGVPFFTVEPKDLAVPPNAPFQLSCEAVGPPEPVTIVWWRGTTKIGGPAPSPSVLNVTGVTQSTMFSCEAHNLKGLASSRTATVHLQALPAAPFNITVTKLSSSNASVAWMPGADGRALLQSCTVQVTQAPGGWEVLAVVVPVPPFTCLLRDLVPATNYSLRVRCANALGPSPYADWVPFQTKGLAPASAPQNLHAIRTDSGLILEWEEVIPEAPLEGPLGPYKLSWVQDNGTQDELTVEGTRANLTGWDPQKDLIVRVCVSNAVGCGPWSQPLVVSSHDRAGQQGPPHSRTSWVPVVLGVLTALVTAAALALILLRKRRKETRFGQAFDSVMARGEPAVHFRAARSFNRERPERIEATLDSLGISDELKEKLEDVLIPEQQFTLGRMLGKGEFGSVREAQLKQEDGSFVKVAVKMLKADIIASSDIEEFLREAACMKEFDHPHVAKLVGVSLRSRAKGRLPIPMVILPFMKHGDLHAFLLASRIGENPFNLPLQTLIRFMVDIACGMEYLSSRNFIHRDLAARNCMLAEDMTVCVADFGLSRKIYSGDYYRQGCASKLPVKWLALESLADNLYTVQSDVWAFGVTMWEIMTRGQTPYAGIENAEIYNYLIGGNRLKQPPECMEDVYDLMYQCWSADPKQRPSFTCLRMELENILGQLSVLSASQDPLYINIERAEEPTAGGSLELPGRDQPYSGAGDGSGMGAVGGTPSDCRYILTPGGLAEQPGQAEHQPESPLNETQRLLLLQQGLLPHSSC

[4] = target: T3, Tyrosine-protein kinase Mer (Homo sapiens, UniProt Q12866); assay: Inhibition of tracer K5 binding to NanoLuc-fused MERTK (unknown origin) expressed in HEK293T cells measured after 2 hrs by NanoBRET assay; assay type: cell-based
T3 sequence (Q12866 whole entry): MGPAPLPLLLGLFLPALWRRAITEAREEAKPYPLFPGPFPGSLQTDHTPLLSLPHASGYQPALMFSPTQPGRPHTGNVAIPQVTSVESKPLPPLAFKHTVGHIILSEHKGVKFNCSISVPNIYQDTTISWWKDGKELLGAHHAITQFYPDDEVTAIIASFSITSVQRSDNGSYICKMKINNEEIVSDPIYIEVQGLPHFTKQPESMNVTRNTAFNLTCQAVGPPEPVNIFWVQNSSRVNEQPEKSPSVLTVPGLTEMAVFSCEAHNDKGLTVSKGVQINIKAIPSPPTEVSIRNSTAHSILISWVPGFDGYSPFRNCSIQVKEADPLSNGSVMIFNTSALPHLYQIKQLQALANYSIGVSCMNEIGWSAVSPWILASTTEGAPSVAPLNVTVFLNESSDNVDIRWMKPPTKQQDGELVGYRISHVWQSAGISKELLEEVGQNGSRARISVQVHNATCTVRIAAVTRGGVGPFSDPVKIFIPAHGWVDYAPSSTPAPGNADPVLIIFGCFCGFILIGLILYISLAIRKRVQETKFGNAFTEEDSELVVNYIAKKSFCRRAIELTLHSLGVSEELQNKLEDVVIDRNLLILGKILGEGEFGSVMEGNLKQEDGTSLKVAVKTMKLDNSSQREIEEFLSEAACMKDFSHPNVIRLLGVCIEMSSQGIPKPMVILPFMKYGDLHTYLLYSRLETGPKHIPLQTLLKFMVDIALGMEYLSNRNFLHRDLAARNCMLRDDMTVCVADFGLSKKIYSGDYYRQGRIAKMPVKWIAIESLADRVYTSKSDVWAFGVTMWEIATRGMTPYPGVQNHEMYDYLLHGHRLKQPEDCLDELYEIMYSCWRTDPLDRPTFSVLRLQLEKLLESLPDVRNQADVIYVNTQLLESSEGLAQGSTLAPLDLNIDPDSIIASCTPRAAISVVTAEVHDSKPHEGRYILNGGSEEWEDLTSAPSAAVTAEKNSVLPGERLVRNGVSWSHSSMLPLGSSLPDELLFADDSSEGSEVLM

[5] = target: T4, Tyrosine-protein kinase receptor UFO (Homo sapiens, UniProt P30530); assay: Inhibition of tracer K5 binding to NanoLuc-fused AXL (unknown origin) expressed in HEK293T cells measured after 2 hrs by NanoBRET assay; assay type: cell-based
T4 sequence (P30530 whole entry): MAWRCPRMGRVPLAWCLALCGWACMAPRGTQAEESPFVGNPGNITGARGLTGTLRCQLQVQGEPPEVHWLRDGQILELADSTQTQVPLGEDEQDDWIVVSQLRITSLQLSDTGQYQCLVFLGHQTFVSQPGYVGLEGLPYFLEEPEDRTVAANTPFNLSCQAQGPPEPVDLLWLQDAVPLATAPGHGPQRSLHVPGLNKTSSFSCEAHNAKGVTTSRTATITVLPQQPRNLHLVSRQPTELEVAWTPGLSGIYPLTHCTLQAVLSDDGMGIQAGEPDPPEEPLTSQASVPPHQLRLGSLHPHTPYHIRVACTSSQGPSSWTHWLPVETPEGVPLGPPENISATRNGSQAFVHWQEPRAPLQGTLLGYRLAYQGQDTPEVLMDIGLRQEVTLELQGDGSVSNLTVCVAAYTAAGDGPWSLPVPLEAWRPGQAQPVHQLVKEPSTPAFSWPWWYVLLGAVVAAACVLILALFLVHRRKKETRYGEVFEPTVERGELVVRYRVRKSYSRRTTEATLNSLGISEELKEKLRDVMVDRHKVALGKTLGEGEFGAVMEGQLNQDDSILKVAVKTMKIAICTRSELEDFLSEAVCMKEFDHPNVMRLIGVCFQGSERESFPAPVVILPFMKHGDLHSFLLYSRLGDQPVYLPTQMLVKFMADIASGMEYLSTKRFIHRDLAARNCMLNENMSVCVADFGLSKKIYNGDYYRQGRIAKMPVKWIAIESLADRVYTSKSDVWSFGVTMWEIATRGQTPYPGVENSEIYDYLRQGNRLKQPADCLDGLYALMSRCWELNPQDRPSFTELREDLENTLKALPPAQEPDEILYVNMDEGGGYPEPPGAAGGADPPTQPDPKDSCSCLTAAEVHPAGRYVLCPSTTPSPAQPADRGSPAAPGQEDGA

[6] = target: T5, Tyrosine-protein kinase Mer (Homo sapiens) (UniProt Q12866); assay: Binding affinity to MERTK (571 to 864 residue) (unknown origin) expressed in Escherichia coli Rosetta cells assessed as change in melting temperature by SYPRO orange dye based DSF assay
T5 sequence (whole entry): T3 sequence (Q12866 whole entry)

[7] = target: T1, Tyrosine-protein kinase ABL1
Description: Binding affinity to non-phosphorylated ABL1 (unknown origin) assessed as change in melting temperature by SYPRO orange dye based DSF assay

[8] = target: T6, Casein kinase I isoform epsilon (Homo sapiens, UniProt P49674); assay: Binding affinity to CSNK1E (unknown origin) assessed as change in melting temperature by SYPRO orange dye based DSF assay
Target sequence in this assay (P49674 whole entry, looked up, the tested form may be a part, canonical isoform): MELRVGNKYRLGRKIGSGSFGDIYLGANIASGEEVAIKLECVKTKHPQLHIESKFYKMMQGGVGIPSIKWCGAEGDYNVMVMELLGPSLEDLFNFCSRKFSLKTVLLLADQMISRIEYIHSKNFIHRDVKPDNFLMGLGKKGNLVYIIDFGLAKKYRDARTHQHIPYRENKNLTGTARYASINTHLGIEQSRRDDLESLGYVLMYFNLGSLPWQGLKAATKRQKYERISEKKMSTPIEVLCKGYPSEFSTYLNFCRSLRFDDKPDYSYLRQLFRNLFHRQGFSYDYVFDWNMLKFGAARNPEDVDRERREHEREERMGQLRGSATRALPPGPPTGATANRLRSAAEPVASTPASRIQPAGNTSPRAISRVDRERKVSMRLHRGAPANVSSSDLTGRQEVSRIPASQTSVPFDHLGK

[9] = target: T6, Casein kinase I isoform epsilon; assay: Inhibition of tracer K5 binding to NanoLuc-fused CSNK1E (unknown origin) expressed in HEK293T cells measured after 2 hrs by NanoBRET assay; assay type: cell-based
Target sequence in this assay (P49674 whole entry, the tested form may be a part, canonical isoform): as the sequence (P49674 whole entry, looked up, the tested form may be a part, canonical isoform) above

[10] = target: T6, Casein kinase I isoform epsilon; assay: Binding affinity to human CSNK1E at 1 uM by KINOMEscan scanMAX assay relative to control
Target sequence in this assay (P49674 whole entry, looked up, the tested form may be a part, canonical isoform): as above

[11] = target: T7, Ribosomal protein S6 kinase alpha-2 (Homo sapiens, UniProt Q15349); assay: Binding affinity to human N-terminal RSK3 kinase domain 1 by KINOMEscan scanMAX assay
[12] = target: T3, Tyrosine-protein kinase Mer; assay: Binding affinity to human MERTK by KINOMEscan scanMAX assay
[13] = target: T1, Tyrosine-protein kinase ABL1; assay: Binding affinity to human non-phosphorylated ABL1 at 1 uM by KINOMEscan scanMAX assay relative to control
[14] = target: T6, Casein kinase I isoform epsilon; assay: Binding affinity to human CSNK1E by KINOMEscan scanMAX assay
Target sequence in this assay (P49674 whole entry, the tested form may be a part, canonical isoform): as the sequence (P49674 whole entry, looked up, the tested form may be a part, canonical isoform) above

[15] = target: T1, Tyrosine-protein kinase ABL1; assay: Binding affinity to human non-phosphorylated ABL1 by KINOMEscan scanMAX assay
[16] = target: Tyrosine-protein kinase receptor UFO (Homo sapiens) (UniProt P30530); assay: Binding affinity to human AXL at 1 uM by KINOMEscan scanMAX assay relative to control
[17] = target: Tyrosine-protein kinase receptor UFO (Homo sapiens) (UniProt P30530); assay: Binding affinity to AXL (unknown origin) assessed as change in melting temperature by SYPRO orange dye based DSF assay
[18] = target: T8, Mitogen-activated protein kinase kinase kinase 2 (Homo sapiens) (UniProt Q9Y2U5); assay: Binding affinity to human MAP3K2 at 1 uM by KINOMEscan scanMAX assay relative to control
T8 sequence (whole entry): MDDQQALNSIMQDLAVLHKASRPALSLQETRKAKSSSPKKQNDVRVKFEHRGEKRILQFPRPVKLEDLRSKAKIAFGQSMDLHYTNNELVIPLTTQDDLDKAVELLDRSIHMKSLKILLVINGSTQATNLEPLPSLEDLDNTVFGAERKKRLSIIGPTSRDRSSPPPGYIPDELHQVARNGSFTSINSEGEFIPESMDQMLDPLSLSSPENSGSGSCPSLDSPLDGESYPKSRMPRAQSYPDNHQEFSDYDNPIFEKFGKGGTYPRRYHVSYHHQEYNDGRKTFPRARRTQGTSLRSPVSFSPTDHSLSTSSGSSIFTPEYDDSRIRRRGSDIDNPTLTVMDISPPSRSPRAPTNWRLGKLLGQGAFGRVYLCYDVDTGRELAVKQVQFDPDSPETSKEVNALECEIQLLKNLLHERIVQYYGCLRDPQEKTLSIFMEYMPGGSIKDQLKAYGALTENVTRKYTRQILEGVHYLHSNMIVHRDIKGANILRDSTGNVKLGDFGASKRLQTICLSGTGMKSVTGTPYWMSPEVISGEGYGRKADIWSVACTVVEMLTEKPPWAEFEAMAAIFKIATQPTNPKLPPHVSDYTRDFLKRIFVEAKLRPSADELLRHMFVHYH

[19] = target: T7, Ribosomal protein S6 kinase alpha-2; assay: Binding affinity to human N-terminal RSK3 kinase domain 1 at 1 uM by KINOMEscan scanMAX assay relative to control
[20] = target: Hepatocyte growth factor receptor (Homo sapiens) (UniProt P08581); assay: Binding affinity to human MET at 1 uM by KINOMEscan scanMAX assay relative to control
[21] = target: T5, Tyrosine-protein kinase Mer (Homo sapiens); assay: Binding affinity to human MERTK at 1 uM by KINOMEscan scanMAX assay relative to control
[22] = target: T9, Mitogen-activated protein kinase kinase kinase 2 (Homo sapiens, UniProt Q9Y2U5); assay: Binding affinity to human MAP3K2 by KINOMEscan scanMAX assay
T9 sequence (Q9Y2U5 whole entry): T8 sequence (whole entry)

[23] = system: P19; assay: Induction of beta3-tubulin abundance in mouse P19 cells at 1 uM preincubated for 4 days followed by cytosine arabinoside addition measured after 6 hrs by immunostaining based microscopic analysis; assay type: functional, cell-based; details: time 4.0 day
[24] = system: P19; assay: Induction of cell death in mouse P19 cell differentiation model at 1 uM preincubated for 4 days followed by cytosine arabinoside addition measured after 6 hrs by immunostaining based microscopic analysis; assay type: functional; details: time 102.0 hrs
[25] = system: P19; assay: Induction of cell death in mouse P19 cell differentiation model at 2 uM preincubated for 4 days followed by cytosine arabinoside addition measured after 6 hrs by immunostaining based microscopic analysis; assay type: functional; details: time 102.0 hrs

T1 sequence (P00519 whole entry, the tested form may be a part): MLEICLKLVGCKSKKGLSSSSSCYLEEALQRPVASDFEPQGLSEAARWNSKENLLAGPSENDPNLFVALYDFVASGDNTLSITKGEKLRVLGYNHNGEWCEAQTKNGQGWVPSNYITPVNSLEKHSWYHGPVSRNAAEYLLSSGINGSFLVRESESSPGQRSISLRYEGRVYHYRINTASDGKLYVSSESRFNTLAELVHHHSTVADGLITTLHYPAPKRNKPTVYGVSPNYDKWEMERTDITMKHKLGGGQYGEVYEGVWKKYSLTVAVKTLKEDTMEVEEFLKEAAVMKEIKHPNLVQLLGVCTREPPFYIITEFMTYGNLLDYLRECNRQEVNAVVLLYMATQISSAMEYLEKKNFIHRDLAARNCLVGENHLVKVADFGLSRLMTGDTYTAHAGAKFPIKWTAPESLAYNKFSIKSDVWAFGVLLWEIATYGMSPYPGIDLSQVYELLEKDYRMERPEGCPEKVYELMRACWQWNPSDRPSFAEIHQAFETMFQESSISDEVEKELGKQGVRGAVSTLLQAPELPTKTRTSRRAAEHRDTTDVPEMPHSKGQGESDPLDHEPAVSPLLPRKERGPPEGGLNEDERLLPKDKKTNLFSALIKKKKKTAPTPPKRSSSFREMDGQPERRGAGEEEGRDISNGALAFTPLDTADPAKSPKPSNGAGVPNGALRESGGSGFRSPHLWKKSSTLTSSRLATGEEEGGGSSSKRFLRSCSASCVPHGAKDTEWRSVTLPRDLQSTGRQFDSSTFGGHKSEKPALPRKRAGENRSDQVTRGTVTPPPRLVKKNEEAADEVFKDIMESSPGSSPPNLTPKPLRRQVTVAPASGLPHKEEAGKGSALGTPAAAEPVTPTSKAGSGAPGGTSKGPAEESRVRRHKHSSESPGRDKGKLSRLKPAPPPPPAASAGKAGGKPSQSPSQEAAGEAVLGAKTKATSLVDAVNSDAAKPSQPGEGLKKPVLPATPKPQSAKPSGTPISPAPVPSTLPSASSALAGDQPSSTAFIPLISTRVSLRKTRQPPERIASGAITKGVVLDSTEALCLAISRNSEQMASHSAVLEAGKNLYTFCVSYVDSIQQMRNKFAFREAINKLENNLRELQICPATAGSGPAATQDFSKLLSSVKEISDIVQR
T7 sequence (Q15349 whole entry, the tested form may be a part): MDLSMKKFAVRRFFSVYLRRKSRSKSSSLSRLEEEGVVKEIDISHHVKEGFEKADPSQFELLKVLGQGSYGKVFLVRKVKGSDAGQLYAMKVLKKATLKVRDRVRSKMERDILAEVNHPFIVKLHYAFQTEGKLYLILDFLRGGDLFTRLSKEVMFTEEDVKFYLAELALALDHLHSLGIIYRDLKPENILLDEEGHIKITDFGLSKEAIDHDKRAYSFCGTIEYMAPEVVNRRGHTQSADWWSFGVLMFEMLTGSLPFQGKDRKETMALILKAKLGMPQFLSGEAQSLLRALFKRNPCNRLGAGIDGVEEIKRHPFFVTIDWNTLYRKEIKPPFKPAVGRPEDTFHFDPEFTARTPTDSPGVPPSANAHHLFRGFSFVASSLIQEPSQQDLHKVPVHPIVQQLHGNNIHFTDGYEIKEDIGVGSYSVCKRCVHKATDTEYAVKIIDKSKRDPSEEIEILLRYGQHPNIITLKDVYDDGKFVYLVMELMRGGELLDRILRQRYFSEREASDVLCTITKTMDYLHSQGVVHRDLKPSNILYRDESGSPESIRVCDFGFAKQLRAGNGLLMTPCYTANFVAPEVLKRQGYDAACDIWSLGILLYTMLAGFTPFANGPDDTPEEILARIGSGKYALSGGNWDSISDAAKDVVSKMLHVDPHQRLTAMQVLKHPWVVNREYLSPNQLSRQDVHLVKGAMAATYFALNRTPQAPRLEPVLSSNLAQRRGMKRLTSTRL
Sequence of Hepatocyte growth factor receptor (Homo sapiens) (P08581 whole entry): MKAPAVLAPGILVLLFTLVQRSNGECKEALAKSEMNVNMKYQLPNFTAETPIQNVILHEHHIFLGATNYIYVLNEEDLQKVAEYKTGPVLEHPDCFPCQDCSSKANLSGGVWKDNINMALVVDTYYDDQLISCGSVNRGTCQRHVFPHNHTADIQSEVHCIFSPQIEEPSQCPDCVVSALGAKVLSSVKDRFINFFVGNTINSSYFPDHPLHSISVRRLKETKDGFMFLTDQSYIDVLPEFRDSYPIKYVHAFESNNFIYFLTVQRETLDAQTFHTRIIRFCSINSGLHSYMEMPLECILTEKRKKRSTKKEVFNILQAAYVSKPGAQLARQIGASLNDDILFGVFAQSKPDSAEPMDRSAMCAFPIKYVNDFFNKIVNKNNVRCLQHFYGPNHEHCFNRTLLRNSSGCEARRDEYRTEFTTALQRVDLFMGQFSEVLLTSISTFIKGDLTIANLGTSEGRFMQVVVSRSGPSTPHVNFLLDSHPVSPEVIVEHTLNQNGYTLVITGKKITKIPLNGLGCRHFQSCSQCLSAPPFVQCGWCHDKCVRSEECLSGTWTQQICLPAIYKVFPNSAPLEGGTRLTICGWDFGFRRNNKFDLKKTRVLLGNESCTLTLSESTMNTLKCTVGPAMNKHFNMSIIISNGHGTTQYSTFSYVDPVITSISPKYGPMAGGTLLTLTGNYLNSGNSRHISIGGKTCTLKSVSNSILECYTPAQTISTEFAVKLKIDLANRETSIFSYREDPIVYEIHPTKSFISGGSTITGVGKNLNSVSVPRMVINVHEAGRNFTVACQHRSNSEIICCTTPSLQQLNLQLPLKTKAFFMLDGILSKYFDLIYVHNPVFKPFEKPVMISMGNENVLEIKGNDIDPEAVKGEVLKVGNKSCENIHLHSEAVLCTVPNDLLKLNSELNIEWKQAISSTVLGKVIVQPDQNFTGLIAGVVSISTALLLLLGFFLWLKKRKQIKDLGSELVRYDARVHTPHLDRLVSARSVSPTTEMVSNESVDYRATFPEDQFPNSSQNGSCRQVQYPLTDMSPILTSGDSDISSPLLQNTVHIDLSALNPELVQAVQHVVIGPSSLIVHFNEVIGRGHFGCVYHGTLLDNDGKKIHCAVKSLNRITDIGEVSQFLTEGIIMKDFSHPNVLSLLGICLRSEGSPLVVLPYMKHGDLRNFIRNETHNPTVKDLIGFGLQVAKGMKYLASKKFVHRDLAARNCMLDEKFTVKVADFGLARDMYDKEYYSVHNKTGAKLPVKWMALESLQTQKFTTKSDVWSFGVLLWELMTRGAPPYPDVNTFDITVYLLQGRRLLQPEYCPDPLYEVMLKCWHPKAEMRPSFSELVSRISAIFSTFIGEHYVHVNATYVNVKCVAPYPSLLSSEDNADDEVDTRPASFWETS

| SMILES | IC50 [1] [µM] | deltaTm [2] [K] | IC50 [3] [µM] | IC50 [4] [µM] | IC50 [5] [µM] | deltaTm [6] [K] | deltaTm [7] [K] | deltaTm [8] [K] | also measured |
| --- | --- | --- | --- | --- | --- | --- | --- | --- | --- |
| Cc1cc(Br)c(CNc2ncc(C(=O)NCCCN3CCOC3=O)c(NC3CCCCC3)n2)cc1Br | > 10 | 0.1 | 8.73 | > 10 | > 10 | -0.5 | 8.4 | 3.8 | IC50 [9]: 22.1 µM |
| O=C(NCCCN1CCOC1=O)c1cnc(NCc2cc(Cl)ccc2Cl)nc1NC1CCCC1 | > 10 | 0.2 | 0.7 | > 10 |  | -0.2 | 8.6 | 5.6 | Activity [10]: 76%; Ki [3]: 0.12 µM; Kd [11]: 1.3 µM; Kd [12]: 0.57 µM; Activity [13]: 73%; Kd [14]: 0.77 µM; Kd [15]: 0.74 µM; Activity [16]: 61%; deltaTm [17]: 0.2 K; Activity [18]: 63%; Activity [19]: 67%; Activity [20]: 63%; Activity [21]: 75%; Kd [22]: 0.69 µM |
| CCN(Cc1ccc(Cl)cc1)c1ncc(C(=O)NCCCN2CCCC2=O)c(NC2CCCC2)n1 | > 10 |  | > 10 | > 10 | > 10 |  |  |  | Activity [23]: inactive; Activity [24]: inactive; Activity [25]: inactive |
| O=C(NCCCN1CCCC1=O)c1cnc(NCc2ccc(Cl)cc2Cl)nc1NC1CCCC1 | > 10 | 0 | > 10 | > 10 | > 10 | 0.1 | 2.3 | 2.1 |  |
